# In patent US11767310B2, “Nicotinamide RIPK1 inhibitors” (AbbVie Inc., priority 2021, dated 2023):
# Like-named read-outs stand apart in the source and are kept apart here.
# Assays:
# Test in all cases: Kinase binding screen
# Conditions in all cases: read-out: Percent Control at 100 nM Compound Concentration
# CAMK1 = CAMK1 (Homo sapiens (Human), UniProt Q14012)
# CDK11 = CDK11 (Homo sapiens (Human), UniProt Q9BWU1)
# LZK = LZK (Homo sapiens (Human), UniProt O43283)
# EPHA2 = EPHA2 (Homo sapiens (Human), UniProt P29317)
# JNK3 = JNK3 (Homo sapiens (Human), UniProt P53779)
# PLK1 = PLK1 (Homo sapiens (Human), UniProt P53350)
# ASK1 = ASK1 (Homo sapiens (Human), UniProt Q99683)
# YANK2 = YANK2 (Homo sapiens (Human), UniProt Q9NY57)
# RIOK3 = RIOK3 (Homo sapiens (Human), UniProt O14730)
# MET = MET (Homo sapiens (Human), UniProt P08581)
# EGFR(E746-A750del) = EGFR(E746-A750del) (Homo sapiens (Human), UniProt P00533, DEL746-750)
# EPHB2 = EPHB2 (Homo sapiens (Human), UniProt P29323)
# SNRK = SNRK (Homo sapiens (Human), UniProt Q9NRH2)
# DYRK2 = DYRK2 (Homo sapiens (Human), UniProt Q92630)
# INSRR = INSRR (Homo sapiens (Human), UniProt P14616)
# KIT(V559D,V654A) = KIT(V559D,V654A) (Homo sapiens (Human), UniProt P10721, V559D/V654A)
# [1] = molecular target: RSK4(Kin.Dom.1-N-terminal) (Homo sapiens (Human), UniProt Q9UK32)
# p38-delta = p38-delta (Homo sapiens (Human), UniProt O15264)
# TESK1 = TESK1 (Homo sapiens (Human), UniProt Q15569)
# HPK1 = HPK1 (Homo sapiens (Human), UniProt Q92918)
# PDGFRB = PDGFRB (Homo sapiens (Human), UniProt P09619)
# p38-alpha = p38-alpha (Homo sapiens (Human), UniProt Q16539)
# MKNK1 = MKNK1 (Homo sapiens (Human), UniProt Q9BUB5)
# ALK(C1156Y) = ALK(C1156Y) (Homo sapiens (Human), UniProt Q9UM73, C1156Y)
# MAP4K4 = MAP4K4 (Homo sapiens (Human), UniProt O95819)
# EPHA4 = EPHA4 (Homo sapiens (Human), UniProt P54764)
# TNK2 = TNK2 (Homo sapiens (Human), UniProt Q07912)
# [2] = molecular target: ABL1(H396P)-phosphorylated (Homo sapiens (Human), UniProt P00519, H396P)
# Sequence of TNK2 (Q07912 whole entry): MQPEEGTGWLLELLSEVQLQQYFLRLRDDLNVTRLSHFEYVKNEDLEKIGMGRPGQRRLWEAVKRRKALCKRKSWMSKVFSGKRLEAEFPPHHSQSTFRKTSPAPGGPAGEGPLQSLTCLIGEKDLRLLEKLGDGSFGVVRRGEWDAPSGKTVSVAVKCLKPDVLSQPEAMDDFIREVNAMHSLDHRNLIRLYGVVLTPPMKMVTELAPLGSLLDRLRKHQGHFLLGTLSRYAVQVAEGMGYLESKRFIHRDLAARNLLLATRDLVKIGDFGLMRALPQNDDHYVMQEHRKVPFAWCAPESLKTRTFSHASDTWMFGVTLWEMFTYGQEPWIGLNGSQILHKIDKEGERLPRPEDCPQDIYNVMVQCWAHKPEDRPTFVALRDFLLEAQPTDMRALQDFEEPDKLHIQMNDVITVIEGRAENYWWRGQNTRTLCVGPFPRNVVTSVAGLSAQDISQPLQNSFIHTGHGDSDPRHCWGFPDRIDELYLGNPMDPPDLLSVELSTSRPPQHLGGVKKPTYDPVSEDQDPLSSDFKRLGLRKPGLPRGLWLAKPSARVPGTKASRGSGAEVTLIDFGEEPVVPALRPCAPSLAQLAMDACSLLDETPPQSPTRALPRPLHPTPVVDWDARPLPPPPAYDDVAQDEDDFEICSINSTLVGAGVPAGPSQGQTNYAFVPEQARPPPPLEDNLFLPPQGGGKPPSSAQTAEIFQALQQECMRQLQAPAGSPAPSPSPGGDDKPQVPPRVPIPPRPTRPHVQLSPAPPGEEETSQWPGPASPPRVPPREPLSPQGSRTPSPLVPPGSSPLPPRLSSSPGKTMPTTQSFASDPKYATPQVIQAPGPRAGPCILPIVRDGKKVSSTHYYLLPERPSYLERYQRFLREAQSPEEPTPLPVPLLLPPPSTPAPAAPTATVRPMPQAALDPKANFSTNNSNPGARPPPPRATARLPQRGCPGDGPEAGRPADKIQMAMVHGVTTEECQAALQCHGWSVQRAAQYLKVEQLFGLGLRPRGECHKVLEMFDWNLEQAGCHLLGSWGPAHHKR
# Sequence of PDGFRB (P09619 33-1106): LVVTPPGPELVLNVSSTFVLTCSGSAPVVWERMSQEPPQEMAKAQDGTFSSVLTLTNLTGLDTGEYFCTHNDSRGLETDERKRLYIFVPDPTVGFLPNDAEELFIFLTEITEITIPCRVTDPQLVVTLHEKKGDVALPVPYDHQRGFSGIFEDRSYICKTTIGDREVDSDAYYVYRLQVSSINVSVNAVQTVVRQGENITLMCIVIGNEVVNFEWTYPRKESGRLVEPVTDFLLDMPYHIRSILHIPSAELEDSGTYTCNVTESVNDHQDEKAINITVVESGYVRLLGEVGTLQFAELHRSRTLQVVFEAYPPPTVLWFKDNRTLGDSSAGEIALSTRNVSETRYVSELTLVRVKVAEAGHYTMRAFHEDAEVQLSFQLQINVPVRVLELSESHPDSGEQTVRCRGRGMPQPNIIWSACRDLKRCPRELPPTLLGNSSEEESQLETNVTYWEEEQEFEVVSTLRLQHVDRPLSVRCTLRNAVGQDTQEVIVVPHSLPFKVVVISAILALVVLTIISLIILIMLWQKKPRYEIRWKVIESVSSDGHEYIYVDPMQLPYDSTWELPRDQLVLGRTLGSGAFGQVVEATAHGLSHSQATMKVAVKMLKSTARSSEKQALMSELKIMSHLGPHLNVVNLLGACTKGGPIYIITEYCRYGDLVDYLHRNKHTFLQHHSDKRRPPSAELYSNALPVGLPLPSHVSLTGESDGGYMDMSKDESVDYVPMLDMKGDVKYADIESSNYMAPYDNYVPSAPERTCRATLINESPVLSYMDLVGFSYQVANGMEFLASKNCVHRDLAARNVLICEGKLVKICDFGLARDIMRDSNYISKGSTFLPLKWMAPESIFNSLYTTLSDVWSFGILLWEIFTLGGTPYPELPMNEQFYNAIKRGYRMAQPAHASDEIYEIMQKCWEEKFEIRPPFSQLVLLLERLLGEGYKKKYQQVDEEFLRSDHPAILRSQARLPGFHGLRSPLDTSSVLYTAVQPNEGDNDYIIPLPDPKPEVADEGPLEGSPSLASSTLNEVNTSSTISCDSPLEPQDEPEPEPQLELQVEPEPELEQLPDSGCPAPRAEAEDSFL
# Sequence of SNRK (Q9NRH2 whole entry): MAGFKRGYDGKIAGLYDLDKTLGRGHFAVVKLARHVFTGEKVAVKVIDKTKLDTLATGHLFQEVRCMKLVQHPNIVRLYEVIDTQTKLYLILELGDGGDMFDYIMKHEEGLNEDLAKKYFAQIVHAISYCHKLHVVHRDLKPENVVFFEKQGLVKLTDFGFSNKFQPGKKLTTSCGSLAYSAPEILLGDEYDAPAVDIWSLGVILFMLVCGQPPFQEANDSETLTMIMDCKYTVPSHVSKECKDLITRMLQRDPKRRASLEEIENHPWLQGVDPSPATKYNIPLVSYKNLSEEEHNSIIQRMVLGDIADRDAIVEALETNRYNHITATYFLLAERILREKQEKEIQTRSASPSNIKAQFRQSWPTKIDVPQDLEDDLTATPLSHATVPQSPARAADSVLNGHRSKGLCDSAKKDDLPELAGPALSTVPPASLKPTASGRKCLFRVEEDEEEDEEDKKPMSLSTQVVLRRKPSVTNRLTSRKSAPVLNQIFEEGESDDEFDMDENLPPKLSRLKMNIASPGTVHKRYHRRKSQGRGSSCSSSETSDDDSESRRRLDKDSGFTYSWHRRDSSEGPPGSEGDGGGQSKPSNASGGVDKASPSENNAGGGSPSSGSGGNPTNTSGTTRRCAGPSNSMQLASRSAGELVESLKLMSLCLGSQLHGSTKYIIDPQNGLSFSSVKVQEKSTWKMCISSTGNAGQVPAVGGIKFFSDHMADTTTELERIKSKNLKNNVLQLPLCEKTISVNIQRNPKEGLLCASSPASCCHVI
# Sequence of MET (P08581 25-1390): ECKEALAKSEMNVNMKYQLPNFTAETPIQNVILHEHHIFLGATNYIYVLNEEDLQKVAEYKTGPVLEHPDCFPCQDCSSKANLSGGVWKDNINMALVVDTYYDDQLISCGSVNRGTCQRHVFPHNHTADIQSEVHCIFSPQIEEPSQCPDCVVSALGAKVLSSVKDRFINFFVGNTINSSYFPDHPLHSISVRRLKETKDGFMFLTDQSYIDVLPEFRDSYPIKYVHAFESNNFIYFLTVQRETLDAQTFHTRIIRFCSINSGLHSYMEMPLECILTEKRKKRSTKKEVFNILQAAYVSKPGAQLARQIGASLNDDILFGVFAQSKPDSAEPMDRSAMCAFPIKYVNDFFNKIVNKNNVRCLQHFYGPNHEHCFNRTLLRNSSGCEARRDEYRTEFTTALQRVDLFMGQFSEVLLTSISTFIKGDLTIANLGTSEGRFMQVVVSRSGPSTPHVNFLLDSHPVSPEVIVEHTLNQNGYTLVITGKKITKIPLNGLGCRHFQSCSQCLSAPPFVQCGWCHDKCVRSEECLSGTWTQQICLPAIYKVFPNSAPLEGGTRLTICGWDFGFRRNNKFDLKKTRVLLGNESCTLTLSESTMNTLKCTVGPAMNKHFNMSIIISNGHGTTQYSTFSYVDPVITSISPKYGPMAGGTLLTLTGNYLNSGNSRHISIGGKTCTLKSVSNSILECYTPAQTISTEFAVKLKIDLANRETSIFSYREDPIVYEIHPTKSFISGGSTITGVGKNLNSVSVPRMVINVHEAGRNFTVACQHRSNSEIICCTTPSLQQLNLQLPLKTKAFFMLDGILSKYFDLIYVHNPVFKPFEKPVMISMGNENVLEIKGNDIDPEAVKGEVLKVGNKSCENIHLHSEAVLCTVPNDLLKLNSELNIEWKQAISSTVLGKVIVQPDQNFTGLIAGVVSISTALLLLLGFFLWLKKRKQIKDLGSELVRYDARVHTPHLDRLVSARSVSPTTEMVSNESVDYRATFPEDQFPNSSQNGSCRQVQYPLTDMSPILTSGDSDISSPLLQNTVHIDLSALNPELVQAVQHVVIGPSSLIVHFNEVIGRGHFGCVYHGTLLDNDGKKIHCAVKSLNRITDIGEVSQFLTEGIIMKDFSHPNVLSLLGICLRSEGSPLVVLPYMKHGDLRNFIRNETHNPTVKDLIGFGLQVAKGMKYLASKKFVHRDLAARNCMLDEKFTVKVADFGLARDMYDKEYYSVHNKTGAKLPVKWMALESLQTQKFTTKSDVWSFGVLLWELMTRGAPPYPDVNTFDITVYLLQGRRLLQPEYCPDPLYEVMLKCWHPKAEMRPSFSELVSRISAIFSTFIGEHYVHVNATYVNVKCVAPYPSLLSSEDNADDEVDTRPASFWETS
# Sequence of YANK2 (Q9NY57 whole entry): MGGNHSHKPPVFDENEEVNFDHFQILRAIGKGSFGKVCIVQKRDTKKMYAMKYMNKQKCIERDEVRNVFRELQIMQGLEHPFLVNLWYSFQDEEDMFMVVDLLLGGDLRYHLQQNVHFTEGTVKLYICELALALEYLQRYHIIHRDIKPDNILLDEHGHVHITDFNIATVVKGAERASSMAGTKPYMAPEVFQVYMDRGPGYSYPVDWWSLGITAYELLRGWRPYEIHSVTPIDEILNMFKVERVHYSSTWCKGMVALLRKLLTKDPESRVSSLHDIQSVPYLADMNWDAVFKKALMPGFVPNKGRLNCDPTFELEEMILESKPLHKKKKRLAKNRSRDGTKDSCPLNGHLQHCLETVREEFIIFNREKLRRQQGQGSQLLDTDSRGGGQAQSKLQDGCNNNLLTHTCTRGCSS
# Sequence of CAMK1 (Q14012 whole entry): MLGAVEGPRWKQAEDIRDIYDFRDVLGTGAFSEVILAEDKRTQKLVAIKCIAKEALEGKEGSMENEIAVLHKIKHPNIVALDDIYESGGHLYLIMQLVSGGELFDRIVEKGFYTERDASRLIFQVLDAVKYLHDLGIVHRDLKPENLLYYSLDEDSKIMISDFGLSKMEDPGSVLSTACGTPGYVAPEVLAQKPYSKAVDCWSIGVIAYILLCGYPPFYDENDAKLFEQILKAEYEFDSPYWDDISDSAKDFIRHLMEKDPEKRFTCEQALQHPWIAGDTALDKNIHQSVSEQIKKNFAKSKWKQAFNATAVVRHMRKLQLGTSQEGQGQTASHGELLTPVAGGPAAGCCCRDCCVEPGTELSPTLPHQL
smiles,measurement,setting,value
"CN(C[C@@H](O)Cc1ccccc1)C(=O)c1cncc(C#Cc2cnn(C(F)F)c2)c1 [Example 2, (S)-5-((1-(difluoromethyl)-1H-pyrazol-4-yl)ethynyl)-N-(2-hydroxy-3-phenylpropyl)-N-methylnicotinamide]",remaining activity at 0.1 µM,CAMK1; CAMK1,100%
same,remaining activity at 0.1 µM,CDK11; CDK11,4.8%
same,remaining activity at 0.1 µM,LZK; LZK,99%
same,remaining activity at 0.1 µM,EPHA2; EPHA2,100%
same,remaining activity at 0.1 µM,JNK3; JNK3,83%
same,remaining activity at 0.1 µM,PLK1; PLK1,87%
same,remaining activity at 0.1 µM,ASK1; ASK1,88%
same,remaining activity at 0.1 µM,YANK2; YANK2,100%
same,remaining activity at 0.1 µM,RIOK3; RIOK3,100%
same,remaining activity at 0.1 µM,MET; MET,100%
same,remaining activity at 0.1 µM,EGFR(E746-A750del); EGFR(E746-A750del),100%
same,remaining activity at 0.1 µM,EPHB2; EPHB2,100%
same,remaining activity at 0.1 µM,SNRK; SNRK,100%
same,remaining activity at 0.1 µM,DYRK2; DYRK2,100%
same,remaining activity at 0.1 µM,INSRR; INSRR,100%
same,remaining activity at 0.1 µM,"KIT(V559D,V654A); KIT(V559D,V654A)",94%
same,remaining activity at 0.1 µM,[1]; RSK4(Kin.Dom.1-N-terminal),100%
same,remaining activity at 0.1 µM,p38-delta; p38-delta,100%
same,remaining activity at 0.1 µM,TESK1; TESK1,100%
same,remaining activity at 0.1 µM,HPK1; HPK1,78%
same,remaining activity at 0.1 µM,PDGFRB; PDGFRB,100%
same,remaining activity at 0.1 µM,p38-alpha; p38-alpha,100%
same,remaining activity at 0.1 µM,MKNK1; MKNK1,96%
same,remaining activity at 0.1 µM,ALK(C1156Y); ALK(C1156Y),100%
same,remaining activity at 0.1 µM,MAP4K4; MAP4K4,92%
same,remaining activity at 0.1 µM,EPHA4; EPHA4,97%
same,remaining activity at 0.1 µM,TNK2; TNK2,100%
same,remaining activity at 0.1 µM,[2]; ABL1(H396P)-phosphorylated,94%
"CN(C[C@H](Cc1ccccc1)OP(=O)(O)O)C(=O)c1cncc(C#Cc2cnn(C(F)F)c2)c1 [Example 19, (S)-1-(5-((1-(difluoromethyl)-1H-pyrazol-4-yl)ethynyl)-N-methylnicotinamido)-3-phenylpropan-2-yl dihydrogen phosphate]",remaining activity at 0.1 µM,CAMK1,62%
same,remaining activity at 0.1 µM,CDK11,92%
same,remaining activity at 0.1 µM,LZK,99%
same,remaining activity at 0.1 µM,EPHA2,100%
same,remaining activity at 0.1 µM,JNK3,86%
same,remaining activity at 0.1 µM,PLK1,87%
same,remaining activity at 0.1 µM,ASK1,100%
same,remaining activity at 0.1 µM,YANK2,95%
same,remaining activity at 0.1 µM,RIOK3,100%
same,remaining activity at 0.1 µM,MET,100%
same,remaining activity at 0.1 µM,EGFR(E746-A750del),94%
same,remaining activity at 0.1 µM,EPHB2,100%
same,remaining activity at 0.1 µM,SNRK,100%
same,remaining activity at 0.1 µM,DYRK2,97%
same,remaining activity at 0.1 µM,INSRR,100%
same,remaining activity at 0.1 µM,"KIT(V559D,V654A)",100%
same,remaining activity at 0.1 µM,[1],93%
same,remaining activity at 0.1 µM,p38-delta,100%
same,remaining activity at 0.1 µM,TESK1,100%
same,remaining activity at 0.1 µM,HPK1,92%
same,remaining activity at 0.1 µM,PDGFRB,100%
same,remaining activity at 0.1 µM,p38-alpha,100%
same,remaining activity at 0.1 µM,MKNK1,91%
same,remaining activity at 0.1 µM,ALK(C1156Y),100%
same,remaining activity at 0.1 µM,MAP4K4,95%
same,remaining activity at 0.1 µM,EPHA4,96%
same,remaining activity at 0.1 µM,TNK2,100%
same,remaining activity at 0.1 µM,[2],93%
